Results taken from patent US6020521A, “Macrolide LHRH antagonists” (Abbott Laboratories, priority 1998, dated 2000).
pKi: −log10 of the molar value.

target: T1, LHRH rat pituitary receptor (Rattus norvegicus, UniProt P30969); assay: LHRH rat pituitary receptor binding (pKI); details: receptor binding affinity, negative logarithm of the equilibrium dissociation constants
T1 construct: from tissue; host or cells: rat pituitary
T1 sequence (P30969 1-327): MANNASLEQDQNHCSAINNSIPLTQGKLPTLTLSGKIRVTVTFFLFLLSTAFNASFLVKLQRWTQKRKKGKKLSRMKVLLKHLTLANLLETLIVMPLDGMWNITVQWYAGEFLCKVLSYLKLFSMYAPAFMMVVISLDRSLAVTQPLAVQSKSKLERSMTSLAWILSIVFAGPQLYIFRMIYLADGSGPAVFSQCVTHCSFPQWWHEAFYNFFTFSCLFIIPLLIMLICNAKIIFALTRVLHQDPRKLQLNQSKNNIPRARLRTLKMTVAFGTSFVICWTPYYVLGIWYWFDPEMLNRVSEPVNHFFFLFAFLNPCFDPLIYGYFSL
Experimental: Representative compounds of the present invention were evaluated in in vitro tests for LHRH rat pituitary receptor binding (pKI) and for LH inhibition from rat pituitary cells for antagonist potency (pA2). The tests employed the methods detailed in F. Haviv, et al. J. Med. Chem., 32: 2340-2344 (1989). The receptor binding affinity (pKI) is the negative logarithm of the equilibrium dissociation constants.

Compound	pKi
CC[C@H]1OC(=O)[C@H](C)[C@@H](OC(=O)N2C(=O)OC[C@@H]2C)[C@H](C)[C@@H](O[C@@H]2O[C@H](C)C[C@H](N(CC3CC3)CC3CC3)[C@H]2O)[C@](C)(OC)C[C@@H](C)C(=O)[C@H](C)[C@H]2N(CCc3ccc(Cl)c(Cl)c3)C(=O)O[C@]12C [Example 42, 11-Deoxy-11-[carboxy(3,4-dichlorophenethyl)amino]-3-O-[4-(S)-methyl-oxazolidin-2-one]carbamoyl-5-O-(3'-bis-N-desmethyl-3'-bis-N-cyclopropylmethyl)desosaminyl-6-O-methyl-erythronolide A 11,12-(cyclic carbamate)]	9.18
CC[C@H]1OC(=O)[C@H](C)[C@@H](OC(=O)N2C(=O)OC[C@@H]2C)[C@H](C)[C@@H](O[C@@H]2O[C@H](C)C[C@H](N(CC3CC3)CC3CC3)[C@H]2O)[C@](C)(OC)C[C@@H](C)C(=O)[C@H](C)[C@H]2N(CCc3ccc(F)c(Cl)c3)C(=O)O[C@]12C [Example 43, 11-Deoxy-11-[carboxy(3-chloro-4-fluorophenethyl)amino]-3-O-[4-(S)-methyl-oxazolidin-2-one]carbamoyl-5-O-(3'-bis-N-desmethyl-3'-bis-N-cyclopropylmethyl)desosaminyl-6-O-methyl-erythronolide A 11,12-(cyclic carbamate)]	9.16
CC[C@H]1OC(=O)[C@H](C)[C@@H](OC(=O)N2C(=O)OC[C@@H]2C)[C@H](C)[C@@H](O[C@@H]2O[C@H](C)C[C@H](N(CC3CC3)CC3CC3)[C@H]2O)[C@](C)(OC)C[C@@H](C)C(=O)[C@H](C)[C@H]2N(CCc3ccc(Cl)c(F)c3)C(=O)O[C@]12C [Example 44, 11-Deoxy-11-[carboxy(4-chloro-3-fluorophenethyl)amino]-3-O-[4-(S)-methyl-oxazolidin-2-one]carbamoyl-5-O-(3'-bis-N-desmethyl-3'-bis-N-cyclopropylmethyl)desosaminyl-6-O-methyl-erythronolide A 11,12-(cyclic carbamate)]	8.50
CC[C@H]1OC(=O)[C@H](C)[C@@H](OC(=O)N2C(=O)OC[C@@H]2C)[C@H](C)[C@@H](O[C@@H]2O[C@H](C)C[C@H](NCC3CC3)[C@H]2O)[C@](C)(OC)C[C@@H](C)C(=O)[C@H](C)[C@H]2N(CCc3ccc(Cl)c(Cl)c3)C(=O)O[C@]12C [Example 45, 11-Deoxy-11-[carboxy(3,4-dichlorophenethyl)amino]-3-O-[4-(S)-methyl-oxazolidin-2-one]carbamoyl-5-O-(3'-bis-N-desmethyl-3'-N-cyclopropylmethyl)desosaminyl-6-O-methyl-erythronolide A 11,12-(cyclic carbamate)]	8.09
CC[C@H]1OC(=O)[C@H](C)[C@@H](OC(=O)N2C(=O)OC[C@@H]2C)[C@H](C)[C@@H](O[C@@H]2O[C@H](C)C[C@H](N(C)CC3(C)CC3)[C@H]2O)[C@](C)(OC)C[C@@H](C)C(=O)[C@H](C)[C@H]2N(CCc3ccc(Cl)c(Cl)c3)C(=O)O[C@]12C [Example 54, 11-Deoxy-11-[carboxy(3,4-dichlorophenethyl)amino]-3-O-[4-(S)-methyl-oxazolidin-2-one]carbamoyl-5-O-[3'-N-desmethyl-3'-N-(1-methyl-cyclopropyl)methyl]desosaminyl-6-O-methyl-erythronolide A 11,12-(cyclic carbamate)]	8.83
CC[C@H]1OC(=O)[C@H](C)[C@@H](OC(=O)N2C(=O)OC[C@@H]2C)[C@H](C)[C@@H](O[C@@H]2O[C@H](C)C[C@H](N(C)CC3(C)CC3)[C@H]2O)[C@](C)(OC)C[C@@H](C)C(=O)[C@H](C)[C@H]2N(CCc3ccc(F)c(Cl)c3)C(=O)O[C@]12C [Example 55, 11-Deoxy-11-[carboxy(3-chloro-4-fluorophenethyl)amino]-3-O-[4-(S)-methyl-oxazolidin-2-one]carbamoyl-5-O-[3'-N-desmethyl-3'-N-(1-methyl-cyclopropyl)methyl]desosaminyl-6-O-methyl-erythronolide A 11,12-(cyclic carbamate)]	9.50
CC[C@H]1OC(=O)[C@H](C)[C@@H](OC(=O)N2C(=O)OC[C@@H]2C)[C@H](C)[C@@H](O[C@@H]2O[C@H](C)C[C@H](N(CC3CC3)C(C)C)[C@H]2O)[C@](C)(OC)C[C@@H](C)C(=O)[C@H](C)[C@H]2N(CCc3ccc(F)c(Cl)c3)C(=O)O[C@]12C [Example 56, 11-Deoxy-11-[carboxy(3-chloro-4-fluorophenethyl)amino]-3-O-[4-(S)-methyl-oxazolidin-2-one]carbamoyl-5-O-(3'-bis-N-desmethyl-3'-N-cyclopropylmethyl-3'-N-isopropyl)desosaminyl-6-O-methyl-erythronolide A 11,12-(cyclic carbamate)]	9.92
